# Results as given in PubChem BioAssay AID248 (DTP/NCI, 2004).
# Values joined by “and” are separate entries in the source; they are usually repeats but may differ in a detail not shown here. Equal values may be shown once. Inconclusive results and toxic doses are left out.
# Tested on: L1210 leukemia ip in BDF1 mice, survival T/C
# Experiment: NCI In Vivo Anticancer Drug Screen. Data for tumor model L1210 Leukemia (intraperitoneal) in B6D2F1 (BDF1) mice
# Conditions: higher = longer survival
# Outline: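 Transplantable tumor model; survival measured in treated vs vehicle control mice. Value = treated/control.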
# [1] = endpoint: mean survival time, dose: 100.0 mg/kg/injection, schedule: Q01DX009 (ip), vehicle: saline with Tween-80
# [2] = endpoint: mean survival time, dose: 100.0 mg/kg/injection, schedule: Q04DX003 (ip), vehicle: saline with Tween-80
# [3] = endpoint: mean survival time, dose: 200.0 mg/kg/injection, schedule: Q04DX003 (ip), vehicle: saline with Tween-80
# [4] = endpoint: mean survival time, dose: 50.0 mg/kg/injection, schedule: Q04DX003 (ip), vehicle: saline
# [5] = endpoint: mean survival time, dose: 100.0 mg/kg/injection, schedule: Q04DX003 (ip), vehicle: saline
smiles,measurement,setting,value
c1ccc2c(N=NSc3ncnc4nc[nH]c34)c3ccccc3nc2c1,T/C,"endpoint: mean survival time, dose: 5.0 mg/kg/injection, schedule: Q01DX001 (ip), vehicle: carboxymethylcellulose (CMC)",105 % of control
same,T/C,"endpoint: mean survival time, dose: 10.0 mg/kg/injection, schedule: Q01DX001 (ip), vehicle: carboxymethylcellulose (CMC)",115 % of control
same,T/C,"endpoint: mean survival time, dose: 20.0 mg/kg/injection, schedule: Q01DX001 (ip), vehicle: carboxymethylcellulose (CMC)",98 % of control
same,T/C,"endpoint: mean survival time, dose: 40.0 mg/kg/injection, schedule: Q01DX001 (ip), vehicle: carboxymethylcellulose (CMC)",107 % of control
CCNC(C)(C)C(SS)c1ccc(Br)cc1 (stereo unspecified),T/C,"endpoint: mean survival time, dose: 6.25 mg/kg/injection, schedule: Q01DX009 (ip), vehicle: water",98 % of control
same,T/C,"endpoint: mean survival time, dose: 12.5 mg/kg/injection, schedule: Q01DX009 (ip), vehicle: water",96 % of control
same,T/C,"endpoint: mean survival time, dose: 25.0 mg/kg/injection, schedule: Q01DX009 (ip), vehicle: water",94 % of control
same,T/C,"endpoint: mean survival time, dose: 50.0 mg/kg/injection, schedule: Q01DX009 (ip), vehicle: water",94 % of control and 91 % of control
same,T/C,"endpoint: mean survival time, dose: 100.0 mg/kg/injection, schedule: Q01DX009 (ip), vehicle: water",101 % of control
same,T/C,"endpoint: mean survival time, dose: 200.0 mg/kg/injection, schedule: Q01DX009 (ip), vehicle: water",93 % of control
same,T/C,"endpoint: mean survival time, dose: 400.0 mg/kg/injection, schedule: Q01DX009 (ip), vehicle: water",93 % of control
CCCCOc1cc(C(=O)O)ccc1[N+](=O)[O-],T/C,"endpoint: mean survival time, dose: 50.0 mg/kg/injection, schedule: Q01DX009 (ip), vehicle: saline with Tween-80",97 % of control
same,T/C,"endpoint: mean survival time, dose: 50.0 mg/kg/injection, schedule: Q04DX003 (ip), vehicle: saline with Tween-80",96 % of control
same,T/C,[1],98 % of control
same,T/C,[2],91 % of control
same,T/C,[3],102 % of control
O=[N+]([O-])c1ccc2c(c1)/C(=N\O)c1cc(Cl)ccc1-2,T/C,"endpoint: mean survival time, dose: 100.0 mg/kg/injection, schedule: Q01DX001 (ip), vehicle: carboxymethylcellulose (CMC)",97 % of control
same,T/C,"endpoint: mean survival time, dose: 200.0 mg/kg/injection, schedule: Q01DX001 (ip), vehicle: carboxymethylcellulose (CMC)",97 % of control
same,T/C,"endpoint: mean survival time, dose: 400.0 mg/kg/injection, schedule: Q01DX001 (ip), vehicle: carboxymethylcellulose (CMC)",94 % of control
COC(COC(N)=O)C1=C(N2CC2)C(=O)C(C)=C(N2CC2)C1=O (stereo unspecified),T/C,"endpoint: mean survival time, dose: 0.03 mg/kg/injection, schedule: Q01DX Z (ip), vehicle: saline",107 % of control
same,T/C,"endpoint: mean survival time, dose: 0.06 mg/kg/injection, schedule: Q01DX Z (ip), vehicle: saline",115 % of control
same,T/C,"endpoint: mean survival time, dose: 0.12 mg/kg/injection, schedule: Q01DX009 (ip), vehicle: Klucel (hydroxypropylcellulose) (HPC)",158 % of control
same,T/C,"endpoint: mean survival time, dose: 0.12 mg/kg/injection, schedule: Q01DX Z (ip), vehicle: saline",115 % of control
same,T/C,"endpoint: mean survival time, dose: 0.25 mg/kg/injection, schedule: Q01DX009 (ip), vehicle: Klucel (hydroxypropylcellulose) (HPC)",113 % of control
same,T/C,"endpoint: mean survival time, dose: 0.25 mg/kg/injection, schedule: Q01DX Z (ip), vehicle: saline",159 % of control
same,T/C,"endpoint: mean survival time, dose: 0.5 mg/kg/injection, schedule: Q01DX009 (ip), vehicle: saline",207 % of control
same,T/C,"endpoint: mean survival time, dose: 0.5 mg/kg/injection, schedule: Q01DX Z (ip), vehicle: saline",157 % of control
same,T/C,"endpoint: mean survival time, dose: 0.5 mg/kg/injection, schedule: Q04DX003 (ip), vehicle: Klucel (hydroxypropylcellulose) (HPC)",194 % of control
same,T/C,"endpoint: mean survival time, dose: 0.5 mg/kg/injection, schedule: Q04DX003 (ip), vehicle: saline",172 % of control
same,T/C,"endpoint: mean survival time, dose: 0.5 mg/kg/injection, schedule: Q08DX002 (ip), vehicle: saline",160 % of control
same,T/C,"endpoint: mean survival time, dose: 1.0 mg/kg/injection, schedule: Q01DX001 (ip), vehicle: saline with Tween-80",166 % of control
same,T/C,"endpoint: mean survival time, dose: 1.0 mg/kg/injection, schedule: Q01DX001 (ip), vehicle: saline",171 % of control
same,T/C,"endpoint: mean survival time, dose: 1.0 mg/kg/injection, schedule: Q01DX009 (ip), vehicle: saline",201 % of control
same,T/C,"endpoint: mean survival time, dose: 1.0 mg/kg/injection, schedule: Q01DX Z (ip), vehicle: saline",90 % of control
same,T/C,"endpoint: mean survival time, dose: 1.0 mg/kg/injection, schedule: Q04DX003 (ip), vehicle: saline",188 % of control
same,T/C,"endpoint: mean survival time, dose: 1.0 mg/kg/injection, schedule: Q08DX002 (ip), vehicle: saline",233 % of control
same,T/C,"endpoint: mean survival time, dose: 2.0 mg/kg/injection, schedule: Q01DX001 (ip), vehicle: saline with Tween-80",288 % of control
same,T/C,"endpoint: mean survival time, dose: 2.0 mg/kg/injection, schedule: Q01DX001 (ip), vehicle: saline",360 % of control
same,T/C,"endpoint: mean survival time, dose: 2.0 mg/kg/injection, schedule: Q01DX009 (ip), vehicle: Klucel (hydroxypropylcellulose) (HPC)",92 % of control
same,T/C,"endpoint: mean survival time, dose: 2.0 mg/kg/injection, schedule: Q04DX003 (ip), vehicle: Klucel (hydroxypropylcellulose) (HPC)",98 % of control
same,T/C,"endpoint: mean survival time, dose: 2.0 mg/kg/injection, schedule: Q04DX003 (ip), vehicle: saline",105 % of control
same,T/C,"endpoint: mean survival time, dose: 2.0 mg/kg/injection, schedule: Q08DX002 (ip), vehicle: saline",159 % of control
same,T/C,"endpoint: mean survival time, dose: 4.0 mg/kg/injection, schedule: Q01DX001 (ip), vehicle: saline with Tween-80",90 % of control
same,T/C,"endpoint: median survival time, dose: 0.5 mg/kg/injection, schedule: Q01DX001 (ip), vehicle: saline",100 % of control
same,T/C,"endpoint: median survival time, dose: 1.0 mg/kg/injection, schedule: Q01DX001 (ip), vehicle: saline",109 % of control
same,T/C,"endpoint: median survival time, dose: 2.0 mg/kg/injection, schedule: Q01DX001 (ip), vehicle: saline",114 % of control
O=C1CCCN(C2CCCCC2)CCC1O (stereo unspecified),T/C,"endpoint: mean survival time, dose: 100.0 mg/kg/injection, schedule: Q04DX003 (ip), vehicle: acetone",96 % of control
same,T/C,"endpoint: mean survival time, dose: 200.0 mg/kg/injection, schedule: Q04DX003 (ip), vehicle: acetone",93 % of control
CCCCCCCCCCCCCCCCN(C(=S)NC(=O)c1ccccc1)c1ccccc1,T/C,"endpoint: mean survival time, dose: 100.0 mg/kg/injection, schedule: Q01DX001 (ip), vehicle: Klucel (hydroxypropylcellulose) (HPC)",96 % of control
same,T/C,"endpoint: mean survival time, dose: 100.0 mg/kg/injection, schedule: Q04DX003 (ip), vehicle: Klucel (hydroxypropylcellulose) (HPC)",97 % of control
same,T/C,"endpoint: mean survival time, dose: 200.0 mg/kg/injection, schedule: Q01DX001 (ip), vehicle: Klucel (hydroxypropylcellulose) (HPC)",86 % of control
same,T/C,"endpoint: mean survival time, dose: 200.0 mg/kg/injection, schedule: Q04DX003 (ip), vehicle: Klucel (hydroxypropylcellulose) (HPC)",89 % of control
same,T/C,"endpoint: mean survival time, dose: 400.0 mg/kg/injection, schedule: Q01DX001 (ip), vehicle: Klucel (hydroxypropylcellulose) (HPC)",92 % of control
same,T/C,"endpoint: mean survival time, dose: 400.0 mg/kg/injection, schedule: Q04DX003 (ip), vehicle: Klucel (hydroxypropylcellulose) (HPC)",95 % of control
O=C1C(Cl)=C(NCc2ccco2)C(=O)c2ccccc21,T/C,"endpoint: mean survival time, dose: 77.0 mg/kg/injection, schedule: Q01DX Z (ip), vehicle: methylcellulose (MC)",89 % of control
same,T/C,"endpoint: mean survival time, dose: 116.0 mg/kg/injection, schedule: Q01DX Z (ip), vehicle: methylcellulose (MC)",87 % of control
same,T/C,"endpoint: mean survival time, dose: 175.0 mg/kg/injection, schedule: Q01DX Z (ip), vehicle: methylcellulose (MC)",95 % of control
CCC(Nc1ccccc1)C(=O)O (stereo unspecified),T/C,"endpoint: mean survival time, dose: 100.0 mg/kg/injection, schedule: Q01DX001 (ip), vehicle: saline",96 % of control
same,T/C,"endpoint: mean survival time, dose: 200.0 mg/kg/injection, schedule: Q01DX001 (ip), vehicle: saline",100 % of control
same,T/C,"endpoint: mean survival time, dose: 400.0 mg/kg/injection, schedule: Q01DX001 (ip), vehicle: saline",102 % of control
[CH3][Sb]1([Cl])[CH2]CCC[CH2]1,T/C,[4],97 % of control
same,T/C,[5],104 % of control
same,T/C,"endpoint: mean survival time, dose: 200.0 mg/kg/injection, schedule: Q04DX003 (ip), vehicle: saline",104 % of control
CCOC(=O)c1ccc(NC(=O)c2ccc(Cl)c(Cl)c2)cc1,T/C,"endpoint: mean survival time, dose: 100.0 mg/kg/injection, schedule: Q01DX001 (ip), vehicle: saline with Tween-80",112 % of control
same,T/C,[1],97 % of control
same,T/C,"endpoint: mean survival time, dose: 100.0 mg/kg/injection, schedule: Q04DX002 (ip), vehicle: saline with Tween-80",97 % of control and 91 % of control
same,T/C,[2],104 % of control
same,T/C,"endpoint: mean survival time, dose: 200.0 mg/kg/injection, schedule: Q01DX001 (ip), vehicle: saline with Tween-80",115 % of control
same,T/C,"endpoint: mean survival time, dose: 200.0 mg/kg/injection, schedule: Q01DX009 (ip), vehicle: saline with Tween-80",93 % of control and 101 % of control
same,T/C,"endpoint: mean survival time, dose: 200.0 mg/kg/injection, schedule: Q04DX002 (ip), vehicle: saline with Tween-80",93 % of control and 87 % of control
same,T/C,[3],108 % of control
same,T/C,"endpoint: mean survival time, dose: 400.0 mg/kg/injection, schedule: Q01DX001 (ip), vehicle: saline with Tween-80",93 % of control
same,T/C,"endpoint: mean survival time, dose: 400.0 mg/kg/injection, schedule: Q01DX009 (ip), vehicle: saline with Tween-80",103 % of control and 114 % of control
same,T/C,"endpoint: mean survival time, dose: 400.0 mg/kg/injection, schedule: Q04DX002 (ip), vehicle: saline with Tween-80",93 % of control and 92 % of control
same,T/C,"endpoint: mean survival time, dose: 400.0 mg/kg/injection, schedule: Q04DX003 (ip), vehicle: saline with Tween-80",97 % of control
CSc1ncc2n1C=CN(C(=O)c1ccc([N+](=O)[O-])cc1)C2O (stereo unspecified),T/C,"endpoint: mean survival time, dose: 25.0 mg/kg/injection, schedule: Q01DX009 (ip), vehicle: saline",89 % of control
same,T/C,"endpoint: mean survival time, dose: 25.0 mg/kg/injection, schedule: Q04DX003 (ip), vehicle: saline",106 % of control
same,T/C,"endpoint: mean survival time, dose: 50.0 mg/kg/injection, schedule: Q01DX009 (ip), vehicle: saline",89 % of control
same,T/C,[4],111 % of control
same,T/C,[5],102 % of control
C=CC[P+](C)(c1ccccc1)c1ccccc1,T/C,"endpoint: mean survival time, dose: 3.13 mg/kg/injection, schedule: Q01DX009 (ip), vehicle: saline",106 % of control
